Laboratory results published in PubChem BioAssay AID192 (DTP/NCI, 2004).
Where “and” joins values, the source holds several entries; their conditions need not be identical. Equal values may be shown once. Toxic doses and inconclusive results are not listed. Numbered stars: 1 amine (or outer) side, 2 acyl side, 3 side chain; on linkers, the order of the positions; unused ones are H or OH. Bridge positions count the residues as written; N and C are the ends. Square brackets hold non-standard residues; d marks the D form. Peptide text beside a SMILES is read from it. I, II: the chains in the order shown. * marks the point of attachment. ξ: configuration not given here. Actinocin(9to1) = Cc1c2oc3c(C)ccc(C(=O)[*:1])c3nc-2c(C(=O)[*:2])c(N)c1=O; ξPro(4ξ-Me) = CC1CNC(C(=O)O)C1; NMeV = CN[CH](C(=O)O)C(C)C; Cbz = O=C(OCc1ccccc1)*; Sar = CNCC(=O)O

Tested on: BDF1 mice, B16 melanoma ip, median survival T/C
Assay: NCI In Vivo Anticancer Drug Screen. Data for tumor model B16 Melanoma (intraperitoneal) in B6D2F1 (BDF1) mice
Conditions: endpoint: median survival time, higher = longer survival
Summary of the method: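 Survival or tumor size is measured after treatment of tumor-bearing mice and normalised to the vehicle-treated control group.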

[1] = dose: 3.12 mg/kg/injection, schedule: Q01DX009 (ip), vehicle: saline with Tween-80
[2] = dose: 6.25 mg/kg/injection, schedule: Q01DX009 (ip), vehicle: saline with Tween-80
[3] = dose: 12.5 mg/kg/injection, schedule: Q01DX009 (ip), vehicle: saline with Tween-80
[4] = dose: 25.0 mg/kg/injection, schedule: Q01DX009 (ip), vehicle: saline with Tween-80
[5] = dose: 100.0 mg/kg/injection, schedule: Q01DX009 (ip), vehicle: saline with Tween-80
[6] = dose: 200.0 mg/kg/injection, schedule: Q01DX009 (ip), vehicle: saline with Tween-80
[7] = dose: 400.0 mg/kg/injection, schedule: Q01DX009 (ip), vehicle: saline with Tween-80
[8] = dose: 50.0 mg/kg/injection, schedule: Q01DX009 (ip), vehicle: Klucel (hydroxypropylcellulose) (HPC)
[9] = dose: 100.0 mg/kg/injection, schedule: Q01DX009 (ip), vehicle: Klucel (hydroxypropylcellulose) (HPC)
[10] = dose: 100.0 mg/kg/injection, schedule: Q04DX003 (ip), vehicle: Klucel (hydroxypropylcellulose) (HPC)
[11] = dose: 200.0 mg/kg/injection, schedule: Q01DX009 (ip), vehicle: Klucel (hydroxypropylcellulose) (HPC)
[12] = dose: 50.0 mg/kg/injection, schedule: Q01DX009 (ip), vehicle: saline with Tween-80

CCc1ccc(C2=C(O)C(=O)C(c3ccc(CC)cc3)=C(O)C2=O)cc1
T/C [1]: 114 % of control
T/C [2]: 103 % of control
T/C [3]: 113 % of control and 119 % of control
T/C [4]: 112 % of control and 122 % of control

O=C1C(Br)C2CCC1C2C(=O)O (centres undefined)
T/C [5]: 111 % of control
T/C [6]: 94 % of control
T/C [7]: 89 % of control

CN(Cc1ccccc1)Cc1ccccc1
T/C (dose: 25.0 mg/kg/injection, schedule: Q01DX009 (ip), vehicle: Klucel (hydroxypropylcellulose) (HPC)): 96 % of control
T/C (dose: 25.0 mg/kg/injection, schedule: Q04DX003 (ip), vehicle: Klucel (hydroxypropylcellulose) (HPC)): 100 % of control
T/C [8]: 100 % of control
T/C (dose: 50.0 mg/kg/injection, schedule: Q04DX003 (ip), vehicle: Klucel (hydroxypropylcellulose) (HPC)): 97 % of control
T/C [9]: 100 % of control
T/C [10]: 97 % of control

CCCC(O)C(CC)CO (centres undefined)
T/C [5]: 100 % of control
T/C [6]: 121 % of control
T/C [7]: 115 % of control

Cc1cc(=O)[nH]c2c1C(=O)c1c(C)cc(=O)n(C)c1C2=O
T/C (dose: 0.5 mg/kg/injection, schedule: Q04DX003 (ip), vehicle: Klucel (hydroxypropylcellulose) (HPC)): 92 % of control
T/C (dose: 1.25 mg/kg/injection, schedule: Q04DX003 (ip), vehicle: Klucel (hydroxypropylcellulose) (HPC)): 102 % of control
T/C (dose: 2.5 mg/kg/injection, schedule: Q04DX003 (ip), vehicle: Klucel (hydroxypropylcellulose) (HPC)): 89 % of control

O=S(=O)(Nc1ccc(F)cc1)c1ccccc1
T/C [9]: 96 % of control
T/C [11]: 99 % of control
T/C (dose: 400.0 mg/kg/injection, schedule: Q01DX009 (ip), vehicle: Klucel (hydroxypropylcellulose) (HPC)): 97 % of control

CCC1(O)CC2CN(CCc3c([nH]c4ccccc34)C(C(=O)OC)(c3cc4c(cc3OC)N(C)C3C(O)(C(=O)NCCO)C(O)C5(CC)C=CCN6CCC43C65)C2)C1 (centres undefined)
T/C (dose: 0.2 mg/kg/injection, schedule: Q01DX009 (ip), vehicle: saline): 164 % of control
T/C (dose: 0.22 mg/kg/injection, schedule: Q01DX009 (ip), vehicle: water): 121 % of control
T/C (dose: 0.36 mg/kg/injection, schedule: Q01DX009 (ip), vehicle: water): 162 % of control
T/C (dose: 0.4 mg/kg/injection, schedule: Q01DX009 (ip), vehicle: saline): 191 % of control
T/C (dose: 0.6 mg/kg/injection, schedule: Q01DX009 (ip), vehicle: water): 161 % of control
T/C (dose: 0.8 mg/kg/injection, schedule: Q01DX009 (ip), vehicle: saline): 218 % of control
T/C (dose: 1.0 mg/kg/injection, schedule: Q04DX003 (ip), vehicle: saline): 155 % of control
T/C (dose: 1.04 mg/kg/injection, schedule: Q01DX001 (ip), vehicle: water): 121 % of control
T/C (dose: 1.44 mg/kg/injection, schedule: Q04DX003 (ip), vehicle: water): 155 % of control and 179 % of control
T/C (dose: 1.67 mg/kg/injection, schedule: Q04DX003 (ip), vehicle: saline): 161 % of control
T/C (dose: 2.4 mg/kg/injection, schedule: Q04DX003 (ip), vehicle: water): 155 % of control and 206 % of control
T/C (dose: 2.9 mg/kg/injection, schedule: Q01DX001 (ip), vehicle: water): 122 % of control
T/C (dose: 4.0 mg/kg/injection, schedule: Q04DX003 (ip), vehicle: water): 87 % of control
T/C (dose: 648.0 micrograms/kg/injection, schedule: Q04DX003 (ip), vehicle: saline): 163 % of control
T/C (dose: 1080.0 micrograms/kg/injection, schedule: Q04DX003 (ip), vehicle: saline): 167 % of control
T/C (dose: 1800.0 micrograms/kg/injection, schedule: Q04DX003 (ip), vehicle: saline): 156 % of control and 182 % of control
T/C (dose: 3000.0 micrograms/kg/injection, schedule: Q04DX003 (ip), vehicle: saline): 166 % of control and 179 % of control

ClCCN(CCCl)CCCN1c2ccccc2Sc2ccccc21
T/C (dose: 3.12 mg/kg/injection, schedule: Q04DX003 (ip), vehicle: saline with Tween-80): 109 % of control
T/C (dose: 6.25 mg/kg/injection, schedule: Q04DX003 (ip), vehicle: saline with Tween-80): 97 % of control

NC(=O)C(Cc1ccccc1)NC(=O)C(Cc1ccccc1)NC(=O)C(Cc1ccccc1)NC(=O)OCc1ccccc1 (stereo not drawn) (Cbz-Phe-Phe-Phe-NH2; configuration not given here)
T/C [1]: 100 % of control
T/C [2]: 89 % of control
T/C [3]: 96 % of control
T/C [4]: 91 % of control

Cc1cc([N+](=O)[O-])c(Cl)cc1NS(=O)(=O)c1ccccc1
T/C [4]: 95 % of control
T/C [12]: 93 % of control
T/C [5]: 90 % of control

NC(N)=Nc1ccc(C(=O)Nc2ccc([N+](=O)[O-])cc2)cc1
T/C [8]: 98 % of control
T/C [9]: 98 % of control
T/C [11]: 94 % of control

CS/C([S-])=N/[NH-].CS/C([S-])=N/[NH-].[Pd]
T/C (dose: 3.13 mg/kg/injection, schedule: Q01DX009 (ip), vehicle: saline with Tween-80): 98 % of control
T/C [2]: 101 % of control
T/C [3]: 99 % of control

Cc1c2oc3c(C)ccc(C(=O)NC4C(=O)NC(C(C)C)C(=O)N5CC(C)CC5C(=O)N(C)CC(=O)N(C)C(C(C)C)C(=O)OC4C)c3nc-2c(C(=O)NC2C(=O)NC(C(C)C)C(=O)N3CC(C)CC3C(=O)N(C)CC(=O)N(C)C(C(C)C)C(=O)OC2C)c(N)c1=O (centres undefined) (I: TV[ξPro(4ξ-Me)][Sar][NMeV] / II: TV[ξPro(4ξ-Me)][Sar][NMeV]; ester I:1-I:C, II:1-II:C; linker I:N-II:N via Actinocin(9to1); configuration not given here)
T/C (dose: 3.24 mg/kg/injection, schedule: Q04DX003 (ip), vehicle: saline + alcohol): 163 % of control
T/C (dose: 3.6 mg/kg/injection, schedule: Q04DX003 (ip), vehicle: saline + alcohol): 123 % of control
T/C (dose: 5.4 mg/kg/injection, schedule: Q04DX003 (ip), vehicle: saline + alcohol): 153 % of control
T/C (dose: 9.0 mg/kg/injection, schedule: Q04DX003 (ip), vehicle: saline + alcohol): 207 % of control
T/C (dose: 15.0 mg/kg/injection, schedule: Q04DX003 (ip), vehicle: saline + alcohol): 188 % of control
T/C (dose: 259.0 micrograms/kg/injection, schedule: Q01DX009 (ip), vehicle: saline + alcohol): 114 % of control
T/C (dose: 432.0 micrograms/kg/injection, schedule: Q01DX009 (ip), vehicle: saline + alcohol): 122 % of control
T/C (dose: 720.0 micrograms/kg/injection, schedule: Q01DX009 (ip), vehicle: saline + alcohol): 118 % of control
T/C (dose: 1200.0 micrograms/kg/injection, schedule: Q01DX009 (ip), vehicle: saline + alcohol): 123 % of control

Cc1cccc(NS(=O)(=O)c2ccc(Cl)cc2)c1C
T/C (dose: 75.0 mg/kg/injection, schedule: Q01DX009 (ip), vehicle: Klucel (hydroxypropylcellulose) (HPC)): 91 % of control
T/C (dose: 150.0 mg/kg/injection, schedule: Q01DX009 (ip), vehicle: Klucel (hydroxypropylcellulose) (HPC)): 95 % of control
T/C (dose: 300.0 mg/kg/injection, schedule: Q01DX009 (ip), vehicle: Klucel (hydroxypropylcellulose) (HPC)): 90 % of control

O=C(O)CC(NC(=O)OCc1ccccc1)C(=O)OCc1ccccc1 (centres undefined)
T/C [8]: 118 % of control
T/C [9]: 89 % of control
T/C [11]: 92 % of control

CN(C)/N=C\c1ccccc1Cl
T/C (dose: 50.0 mg/kg/injection, schedule: Q04DX003 (ip), vehicle: saline with Tween-80): 104 % of control
T/C (dose: 100.0 mg/kg/injection, schedule: Q04DX003 (ip), vehicle: saline with Tween-80): 102 % of control

CC1(C)N=C(N)N=C(N)N1c1ccc(OCCNS(=O)(=O)c2cccc(S(=O)(=O)F)c2)c(Cl)c1
T/C [3]: 107 % of control
T/C [4]: 113 % of control
T/C [12]: 120 % of control

CCC1OC(=O)CC(O)C(C)C(OC2OC(C)CC(N(C)C)C2O)C(CC=O)CC(C)C(=O)/C=C/C2(C)OC2C1C (centres undefined)
T/C [8]: 88 % of control
T/C [9]: 92 % of control

COc1ccc(/C=C2\CCC3C(=O)CCCC3(C)C2=O)cc1 (centres undefined)
T/C [10]: 94 % of control
T/C (dose: 200.0 mg/kg/injection, schedule: Q04DX003 (ip), vehicle: Klucel (hydroxypropylcellulose) (HPC)): 92 % of control
T/C (dose: 400.0 mg/kg/injection, schedule: Q04DX003 (ip), vehicle: Klucel (hydroxypropylcellulose) (HPC)): 89 % of control
